Measurements taken from patent US20200377885A1, “COMPOSITIONS AND METHODS FOR THE GENERATION OF NEURONS AND USES THEREOF” (Washington University, priority 2017, published 2020).
“Also recorded” adds a separate entry of the source.

How the values were obtained:
HD-MSNs [1] = assay: Spontaneous cell death of HD-MSNs by SYTOX green dead-cell staining; format: cell-based, human; conditions: 0.5 μM added at 30 days post induction, assessed at PID 35, vs DMSO
Procedure: (§1) In addition, Hoechst 33342 solution (Thermo Fisher Scientific) was added as a counterstain to label all nuclei at a final concentration of 1 μg/ml in culture media. Samples were incubated for at least 10 minutes in 37° C. Images were captured using a Leica DMI 400B inverted microscope with Leica Application Suite (LAS) Advanced Fluorescence. Three images were taken from random areas of each coverslip for at least three biological replicates per experiment. Quantification performed by counting number of SYTOX-positive cells over total Hoechst signal.
(§2) The ATM-Kinase inhibitor KU-60019 was obtained from Abcam (ab144817), solubilized in DMSO and directly added to the cell culture media for a final concentration of 0.5 μM at 30 days post miR-9/9*-124 induction, then cell death was assessed by SYTOX at PID 35. Controls were treated with the same volume of DMSO but no drug. At day 35, cells treated with DMSO or KU-60019 also were treated with 1 mM of H2O2 for three hours. SYTOX green/Hoechst stain was added as already described and imaged for scoring.

HD-MSNs [2] = assay: H2O2-induced oxidative stress cell death of HD-MSNs (SYTOX green/Hoechst); format: cell-based, human; conditions: 0.5 μM, 1 mM H2O2 for three hours at day 35, vs DMSO
Procedure: as §1, §2

ATM = ATM (Homo sapiens, UniProt Q13315); conditions: earlier findings; cited from earlier work
Chain of ATM (Q13315 whole entry, species assumed): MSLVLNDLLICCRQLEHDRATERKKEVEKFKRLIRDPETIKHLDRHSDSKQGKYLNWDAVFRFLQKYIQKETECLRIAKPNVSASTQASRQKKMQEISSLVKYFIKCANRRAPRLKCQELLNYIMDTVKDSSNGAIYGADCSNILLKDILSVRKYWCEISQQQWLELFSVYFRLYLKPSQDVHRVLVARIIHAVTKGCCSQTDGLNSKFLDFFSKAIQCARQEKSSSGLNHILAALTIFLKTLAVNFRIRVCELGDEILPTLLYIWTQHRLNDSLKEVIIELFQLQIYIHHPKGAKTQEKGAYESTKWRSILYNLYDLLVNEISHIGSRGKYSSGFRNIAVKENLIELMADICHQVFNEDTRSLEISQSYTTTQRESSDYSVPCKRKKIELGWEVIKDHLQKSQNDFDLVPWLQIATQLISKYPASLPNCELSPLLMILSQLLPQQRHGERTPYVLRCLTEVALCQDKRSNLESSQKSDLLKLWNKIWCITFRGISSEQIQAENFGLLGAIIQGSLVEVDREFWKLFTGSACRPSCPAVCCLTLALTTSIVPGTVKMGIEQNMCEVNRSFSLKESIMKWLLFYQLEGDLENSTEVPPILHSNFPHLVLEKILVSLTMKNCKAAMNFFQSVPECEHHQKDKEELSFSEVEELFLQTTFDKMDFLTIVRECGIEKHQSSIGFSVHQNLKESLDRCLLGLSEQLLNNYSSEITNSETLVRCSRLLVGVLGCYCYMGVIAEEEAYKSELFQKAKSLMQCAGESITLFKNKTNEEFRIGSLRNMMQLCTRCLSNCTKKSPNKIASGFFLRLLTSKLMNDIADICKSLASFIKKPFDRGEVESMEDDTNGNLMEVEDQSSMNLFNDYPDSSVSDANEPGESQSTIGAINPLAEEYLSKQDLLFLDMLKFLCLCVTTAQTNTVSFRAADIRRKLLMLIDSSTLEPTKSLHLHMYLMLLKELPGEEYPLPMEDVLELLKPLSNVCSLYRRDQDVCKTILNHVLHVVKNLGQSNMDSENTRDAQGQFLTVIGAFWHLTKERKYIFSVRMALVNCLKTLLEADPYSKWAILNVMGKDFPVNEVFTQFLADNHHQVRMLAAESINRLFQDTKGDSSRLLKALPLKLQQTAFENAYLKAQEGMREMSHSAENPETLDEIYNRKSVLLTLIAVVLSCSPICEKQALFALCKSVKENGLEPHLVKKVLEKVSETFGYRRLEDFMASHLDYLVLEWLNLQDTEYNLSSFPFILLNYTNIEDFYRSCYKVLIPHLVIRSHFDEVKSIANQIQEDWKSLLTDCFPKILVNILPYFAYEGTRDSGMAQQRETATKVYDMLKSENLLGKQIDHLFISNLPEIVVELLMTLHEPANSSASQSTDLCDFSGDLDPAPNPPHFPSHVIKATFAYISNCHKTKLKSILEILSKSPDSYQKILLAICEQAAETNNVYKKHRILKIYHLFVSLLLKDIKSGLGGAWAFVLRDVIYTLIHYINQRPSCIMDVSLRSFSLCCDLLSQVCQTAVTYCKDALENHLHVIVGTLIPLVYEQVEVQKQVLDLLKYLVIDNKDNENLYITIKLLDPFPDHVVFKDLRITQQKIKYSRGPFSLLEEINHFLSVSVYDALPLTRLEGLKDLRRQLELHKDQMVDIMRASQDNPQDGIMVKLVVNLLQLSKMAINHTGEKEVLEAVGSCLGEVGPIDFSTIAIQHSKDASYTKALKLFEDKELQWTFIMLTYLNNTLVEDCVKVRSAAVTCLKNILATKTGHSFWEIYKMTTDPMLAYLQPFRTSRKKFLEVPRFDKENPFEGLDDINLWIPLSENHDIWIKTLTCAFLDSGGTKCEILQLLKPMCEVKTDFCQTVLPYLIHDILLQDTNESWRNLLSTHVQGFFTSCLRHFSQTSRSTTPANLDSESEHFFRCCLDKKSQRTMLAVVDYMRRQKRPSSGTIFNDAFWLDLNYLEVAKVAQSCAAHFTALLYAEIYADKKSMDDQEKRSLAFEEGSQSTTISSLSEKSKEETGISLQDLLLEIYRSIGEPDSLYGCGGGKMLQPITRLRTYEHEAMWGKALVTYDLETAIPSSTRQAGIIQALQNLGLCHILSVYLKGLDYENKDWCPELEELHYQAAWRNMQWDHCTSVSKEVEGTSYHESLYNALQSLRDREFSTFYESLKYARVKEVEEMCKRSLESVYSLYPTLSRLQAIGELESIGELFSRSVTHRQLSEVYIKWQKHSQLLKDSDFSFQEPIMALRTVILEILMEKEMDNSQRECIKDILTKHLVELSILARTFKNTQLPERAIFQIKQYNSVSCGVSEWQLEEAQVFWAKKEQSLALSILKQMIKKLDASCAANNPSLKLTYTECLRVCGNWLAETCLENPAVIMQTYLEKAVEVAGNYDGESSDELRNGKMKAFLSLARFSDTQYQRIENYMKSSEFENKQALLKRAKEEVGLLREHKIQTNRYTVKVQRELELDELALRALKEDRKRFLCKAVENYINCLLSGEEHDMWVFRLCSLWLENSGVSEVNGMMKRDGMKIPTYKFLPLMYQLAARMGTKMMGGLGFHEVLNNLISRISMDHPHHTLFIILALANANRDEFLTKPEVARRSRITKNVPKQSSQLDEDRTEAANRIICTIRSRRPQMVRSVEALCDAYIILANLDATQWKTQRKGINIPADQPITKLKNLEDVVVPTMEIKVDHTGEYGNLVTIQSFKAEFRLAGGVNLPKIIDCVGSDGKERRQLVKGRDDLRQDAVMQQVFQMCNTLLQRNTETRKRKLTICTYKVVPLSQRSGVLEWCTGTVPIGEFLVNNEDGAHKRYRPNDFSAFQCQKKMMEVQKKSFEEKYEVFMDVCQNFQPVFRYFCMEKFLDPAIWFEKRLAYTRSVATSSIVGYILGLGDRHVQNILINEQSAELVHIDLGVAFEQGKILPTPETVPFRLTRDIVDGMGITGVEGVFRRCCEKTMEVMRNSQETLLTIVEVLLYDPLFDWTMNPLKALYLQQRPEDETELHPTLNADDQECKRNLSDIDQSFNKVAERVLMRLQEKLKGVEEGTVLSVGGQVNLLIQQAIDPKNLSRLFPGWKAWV

[3] = tested on: GFP-74Q-expressing HEF cells; assay: Inclusion body formation in GFP-74Q-expressing HEFs after proteasome inhibition; format: cell-based, human; conditions: 5 μM, 24 hours later, vs DMSO
Excerpt: Because the findings contrasted with previous studies that report the lack of mHTT aggregates in iPSC-derived neurons from HD patients, it was decided to directly test if altering the cellular state of adult HD fibroblasts to an embryonic-like stage, a process that effectively erases aging markers, would affect the aggregation propensity of mHTT in HD-MSNs. HD-iPSCs were derived from adult HD fibroblasts and these stem cells were differentiated back into fibroblasts using a method for generating human embryonic fibroblasts (HEFs) (see e.g., FIG. 26A and FIG. 27A). […] HD.40-HEFs expressed fibroblast markers vimentin and fibronectin (see e.g., FIG. 26B). […] Upon direct conversion of HD.40-HEFs to MSNs (human embryonic MSNs, heMSNs), little to no aggregated mHTT was detectable in HD-heMSNs at PID 21 (see e.g., FIG. FIGS. 24B and 24C). […] It was then decided to investigate differences in mHTT aggregation propensity to elucidate the contribution of aging to protein aggregation in HD. […] To directly test if proteasome activity was preventing the formation of inclusions in HEFs, GFP-74Q-expressing HEF cells were treated with the proteasome inhibitor lactacystin, and assessed the presence of inclusions 24 hours later. […]

## C[C@@H]1CN(CC(=O)Nc2ccc3c(c2)Cc2cccc(-c4cc(=O)cc(N5CCOCC5)o4)c2S3)C[C@H](C)O1 [KU60019]
HD-MSNs [1]
  levels of spontaneous cell death (SYTOX-positive cells over Hoechst): significantly reduced; also recorded: reduces cell death levels
HD-MSNs [2]
  levels of stress-induced cell death (H2O2-induced oxidative stress): significantly reduced; also recorded: protects HD-MSNs against H2O2-induced oxidative stress
ATM
  mHTT-induced cell death: reduce mHTT-induced cell death

## CC(=O)N[C@@H](CSC(=O)[C@]1([C@@H](O)C(C)C)NC(=O)[C@H](C)[C@@H]1O)C(=O)O [lactacystin]
[3]
  number of cells bearing inclusions (IBs): induces IBs
[3]; listed as Lactacystin
  number of cells bearing inclusions (IBs): significantly increased
